From US8476255B2, “Histone deacetylase inhibitors” (Orchid Chemicals & Pharmaceuticals Limited, priority 2007, dated 2013) come the findings set out here.

The test system of one experiment is U251 (glioma) cells. Put plainly: Anti-cancer screen (MTT), U251. In kind it is cell-based. As to conditions: Homo sapiens, U-251, U251, 48 hours, MTT; for GI50: read-out: Cell growth inhibition U251 (Glioma) GI50; for LC50 (concentration giving 50% net cell kill relative to the time-zero cell count): read-out: Cell growth inhibition U251 (Glioma) LC50; for IC (TGI): read-out: Cell growth inhibition U251 (Glioma) TGI. The method, then: (§1) Experimental drugs were screened for anti-cancer activity in three cell lines using five concentrations for each compound. The cell lines —HCT 116 (colon), NCIH460 (lung) and U251 (glioma) were maintained in DMEM containing 10% fetal bovine serum. 96-well microtiter plates are inoculated with cells in 100 μL of cell suspension (5×10^4 cells/mL) for 24 hours at 37° C., 5% CO2, 95% air and 100% relative humidity. A separate plate with these cell lines is also inoculated to determine cell viability before the addition of the compounds (T0).
(§2) Following 24-hours incubation, test compounds were added to the 96 well plates. Each plate contains one of the above cell lines and the following samples in triplicate: five different dilutions (0.01, 0.1, 1, 10 and 100 μM) of four test compounds, appropriate dilutions of a cytotoxic standard and growth medium (untreated) wells. Test compounds were dissolved in DMSO to prepare 20 mM stock solutions on the day of drug addition and serial dilutions were carried out in complete growth medium at 2× strength such that 100 μL added to wells gave final concentrations (0.01, 0.1, 1, 10 and 100 μM) in the well. SAHA was used as standard drug in these experiments.
(§3) For T0 measurement, 24 hours after seeding the cells, 20 μL of 3-(4,5-dimethyl-2-thiazolyl)-2,5-diphenyl-2H-tetrazolium (MTT) solution per well was added to the ‘T0’ plate and incubated for 3 hours at 37° C. in a CO2 incubator. The plate containing cells and test compounds was treated similarly after 48 hours of incubation. After 3 hours of MTT addition, well contents were aspirated carefully followed by addition of 150 μL DMSO per well. Plates were agitated to ensure dissolution of the formazan crystals in DMSO and absorbance was read at 570 nm (A570).
(§4) (Mosmann T. Rapid colorimetric assay for cellular growth and survival: application to proliferation and cytotoxicity assays. J Immunol Methods 1983; 65(1-2): 55-63; Anne Monks et al. Feasibility of high-flux anticancer drug screen using a diverse panel of cultured human tumor cell lines”. JNCI, Vol. 83, No. 11, 1991).

The test system of the next experiment is NCIH460 (lung) cells. The experiment is described as follows: Anti-cancer screen (MTT), NCIH460. In kind it is cell-based. As to conditions: Homo sapiens, NCI-H460, NCIH460, 48 hours, MTT; for GI50: read-out: Cell growth inhibition NCIH460 (Lung) GI50; for LC50: read-out: Cell growth inhibition NCIH460 (Lung) LC50; for IC (TGI): read-out: Cell growth inhibition NCIH460 (Lung) TGI. The method, then: as §1, §2, §3, §4

Experiment [1] concerns NCIH460, HCT116 and U251 cells. Put plainly: Anti-cancer screen, mean GI50 over cell lines. It is filed as cell-based. To be noted: mean over cell lines; read-out: Cell growth inhibition Mean GI50. Here is the method: as §1, §2, §3, §4
The test system of the next experiment is HCT 116 (colon) cells. Put plainly: Anti-cancer screen (MTT), HCT 116. In kind it is cell-based. To be noted: Homo sapiens, HCT-116, HCT116, 48 hours, MTT; for GI50: read-out: Cell growth inhibition HCT116 (Colon) GI50; for CC50: read-out: Cell growth inhibition HCT116 (Colon) LC50; for IC (TGI): read-out: Cell growth inhibition HCT116 (Colon) TGI. The method, then:
as §1, §2, §3, §4

The test system of experiment [2] is HDAC (Mouse Liver Extract). The experiment is described as follows: HDAC inhibition assay using Boc-Lys(Ac)-AMC substrate. To be noted: mouse liver enzyme. It is filed as biochemical. Here is the method:
Inhibition of HDAC has been implicated to modulate transcription and to induce apoptosis or differentiation in cancer cells. The fluorometric assay provides a fast and fluorescence based method that eliminates radioactivity, extractions or chromatography, as used in traditional assays. The assay is based on two steps. First, the HDAC fluorometric substrate, which comprises an acetylated lysine side chain, is incubated with a sample containing HDAC activity (Mouse Liver Extract). Deacetylation of the substrate sensitizes the substrate, in the second step; treatment with the Trypsin stop solution produces a fluorophore that can be easily analyzed using fluorescence plate reader. Assay was done in 96-well black microplate and total volume of the assay was […]. […] The plate was pre-incubated at 37° C. for 5 minutes. […] The plate was incubated at 37° C. for 30 min. The reaction was stopped by adding 100 μL, of Trypsin stop solution and incubating at 37° C. for 15-30 min. Measuring the fluorescence at excitation wavelength of 360 nm and emission wavelength of 460 nm monitored the release of AMC. Buffer alone and substrate alone served as blank. […] (Dennis Wegener et al, Anal. Biochem, 321, 2003, 202-208).

In general, GI50 refers to the concentration that inhibits growth by half. Broadly, the LC50 is the concentration lethal to half of the exposed cells or organisms. Broadly, the IC50 is the point on the concentration scale where inhibition reaches its midpoint. For the molecule `CSc1ccc(/C=C(/C(=O)NCCCCCC(=O)NO)c2ccsc2)cc1` [Compound 90, 6-(2-(Thiophen-3-yl)-3-(4-methylthiophenyl)acrylamido)-N-hydroxy hexanamide], in the experiment on U251 (glioma) cells, the GI50 was 0.8 µM, the LC50 (concentration giving 50% net cell kill relative to the time-zero cell count) came out at 82 µM and the IC (TGI) is 6.1 µM. Further, in the experiment on NCIH460 (lung) cells, the GI50 was found to be 0.1 µM, the LC50 turned out to be 30 µM and the IC (TGI) was determined as 5 µM. Moreover, the GI50 in experiment [1] stood at 1.3 µM. In the experiment on HCT 116 (colon) cells, the GI50 was 3 µM, the CC50 is over 100 µM and the IC (TGI) was 6 µM. Besides, in experiment [2], the “HDAC inhibition % (1 μM)” value is given as 78.2%, the “HDAC inhibition % (10 μM)” value is reported as 98.9% and half-maximal inhibition (IC50) was put at 0.04 µM.
In the case of `O=C(NCc1ccc(C(=O)NO)cc1)/C(=C/c1ccc(F)cc1)c1ccc(C(F)(F)F)cc1` [Compound 50, 4-((2-(4-Trifluoromethyllphenyl)-3-(4-fluorophenyl)acrylamido)methyl)-N-hydroxybenzamide], in the experiment with U251 (glioma) cells, the GI50 amounted to 43 µM, the LC50 (concentration giving 50% net cell kill relative to the time-zero cell count) stood at 87 µM and the IC (TGI) was found to be 72 µM. Besides, in the experiment with NCIH460 (lung) cells, the GI50 worked out at 38 µM, the LC50 was 92 µM and the IC (TGI) was 69 µM. In experiment [1], the GI50 was 34.3 µM. Moreover, in the experiment with HCT 116 (colon) cells, the GI50 was 22 µM, the CC50 is 88 µM and the IC (TGI) turned out to be 55 µM. In experiment [2], the “HDAC inhibition % (1 μM)” value was 50.1% and the “HDAC inhibition % (10 μM)” value was found to be 87.1%.
In the case of `COc1ccc(/C(=C\c2ccc(F)cc2)C(=O)NCc2ccc(C(=O)NO)cc2)cc1` [Compound 49, 4-((2-(4-Methoxyphenyl)-3-(4-fluorophenyl)acrylamido)methyl)-N-hydroxybenzamide], in the experiment with U251 (glioma) cells, the GI50 was found to be 5.4 µM, the LC50 (concentration giving 50% net cell kill relative to the time-zero cell count) was 81 µM and the IC (TGI) is 34.5 µM. In the experiment on NCIH460 (lung) cells, the GI50 is 19 µM, the LC50 worked out at 89 µM and the IC (TGI) is 52.5 µM. Also, the GI50 in experiment [1] is 9.2 µM. Also, in the experiment with HCT 116 (colon) cells, the 50% growth inhibitory concentration (GI50) came to 3.3 µM, the CC50 was 66 µM and the IC (TGI) stood at 9 µM. Moreover, in experiment [2], the “HDAC inhibition % (1 μM)” value was 45.5%, the “HDAC inhibition % (10 μM)” value is reported as 69.7% and it took 0.33 µM to reach half-maximal inhibition (IC50).
Turning to `COC(=O)c1ccc(/C=C(/C(=O)NCc2ccc(C(=O)Nc3ccccc3N)cc2)c2cccc(Cl)c2)cc1` [Compound 33, N-(2-Aminophenyl)-4-((3-(4-carbmethoxyphenyl)-2-(3-chlorophenyl)acrylamido)methyl)benzamide], in the experiment with U251 (glioma) cells, the GI50 came to 0.2 µM, the LC50 (concentration giving 50% net cell kill relative to the time-zero cell count) stood at 4.5 µM and the IC (TGI) stood at 0.7 µM. Further, in the experiment on NCIH460 (lung) cells, the GI50 is 0.2 µM, the LC50 was 60 µM and the IC (TGI) worked out at 11 µM. The GI50 in experiment [1] stood at 0.1 µM. For the same molecule, in the experiment on HCT 116 (colon) cells, the 50% growth inhibitory concentration (GI50) came to 0.02 µM, the CC50 was found to be 80 µM and the IC (TGI) worked out at 2 µM. For the same molecule, in experiment [2], the “HDAC inhibition % (1 μM)” value is reported as 34.4%, the “HDAC inhibition % (10 μM)” value is listed as 35.0% and inhibition was half-maximal at 7.8 µM (IC50).
As to `O=C(NCc1ccc(C(=O)NO)cc1)/C(=C/c1c(F)cc(F)cc1F)c1ccc(F)cc1` [Compound 54, 4-((2-(4-Fluorophenyl)-3-(2,4,6-trifluorophenyl)acrylamido)methyl)-N-hydroxybenzamide], in the experiment with U251 (glioma) cells, the GI50 came out at 19 µM, the LC50 (concentration giving 50% net cell kill relative to the time-zero cell count) came out at 64 µM and the IC (TGI) was found to be 25 µM. Besides, in the experiment with NCIH460 (lung) cells, the GI50 was 8 µM, the LC50 amounted to 68 µM and the IC (TGI) came out at 24 µM. In experiment [1], the GI50 is 10.5 µM. In the experiment with HCT 116 (colon) cells, the concentration for 50% growth inhibition (GI50) came to 4.4 µM, the CC50 stood at 59 µM and the IC (TGI) came to 20 µM. Further, in experiment [2], the “HDAC inhibition % (1 μM)” value is 67.5% and the “HDAC inhibition % (10 μM)” value was 89.8%.
In the case of `Nc1ccccc1NC(=O)c1ccc(CNC(=O)/C(=C/c2ccc(F)c(C(F)(F)F)c2)c2ccc(C(F)(F)F)cc2)cc1` [Compound 4, N-(2-Aminophenyl)-4-((3-(4-fluoro-3-trifluoromethylphenyl)-2-(4-trifluoromethylphenyl)acrylamido)methyl)benzamide], in the experiment on U251 (glioma) cells, the GI50 is 11.5 µM, the LC50 (concentration giving 50% net cell kill relative to the time-zero cell count) was over 100 µM and the IC (TGI) amounted to 41 µM. Moreover, in the experiment with NCIH460 (lung) cells, the concentration for 50% growth inhibition (GI50) stood at 0.2 µM, the LC50 came to 58.5 µM and the IC (TGI) was found to be 3.8 µM. In addition, the 50% growth inhibitory concentration (GI50) in experiment [1] was 5.3 µM. Also, in the experiment on HCT 116 (colon) cells, the GI50 was 4.1 µM, the CC50 is 77 µM and the IC (TGI) amounted to 26 µM. For the same molecule, in experiment [2], the “HDAC inhibition % (1 μM)” value worked out at 0.0% and the “HDAC inhibition % (10 μM)” value came to 14.2%.
For `Nc1ccccc1NC(=O)c1ccc(CNC(=O)/C(=C/c2ccc(F)cc2)c2ccccc2)cc1` [Compound 10, N-(2-Aminophenyl)-4-((3-(4-fluorophenyl)-2-(phenyl)acrylamido)methyl)benzamide], in the experiment on U251 (glioma) cells, the GI50 came out at 27 µM, the LC50 (concentration giving 50% net cell kill relative to the time-zero cell count) stood at 92 µM and the IC (TGI) worked out at 57 µM. In the experiment on NCIH460 (lung) cells, the concentration for 50% growth inhibition (GI50) was 19.5 µM, the LC50 is 85 µM and the IC (TGI) worked out at 49 µM. For the same molecule, the GI50 in experiment [1] is 16.8 µM. For the same molecule, in the experiment on HCT 116 (colon) cells, the 50% growth inhibitory concentration (GI50) is 3.9 µM, the CC50 came out at 56 µM and the IC (TGI) came to 9 µM. For the same molecule, in experiment [2], the “HDAC inhibition % (1 μM)” value was 14.5% and the “HDAC inhibition % (10 μM)” value is recorded as 32.1%.
Turning to `CSc1ccc(/C=C(/C(=O)NCc2ccc(C(=O)Nc3ccccc3N)cc2)c2cccs2)cc1` [Compound 18, N-(2-Aminophenyl)-4-((3-(4-methylthiophenyl)-2-(thiophen-2-yl)acrylamido)methyl)benzamide], in the experiment with U251 (glioma) cells, the GI50 was determined as 2.2 µM, the LC50 (concentration giving 50% net cell kill relative to the time-zero cell count) stood at 7 µM and the IC (TGI) came out at 4 µM. Moreover, in the experiment on NCIH460 (lung) cells, the GI50 was 4.1 µM, the LC50 was over 100 µM and the IC (TGI) amounted to 20 µM. The GI50 in experiment [1] amounted to 3.8 µM. Further, in the experiment on HCT 116 (colon) cells, the GI50 was determined as 5 µM, the CC50 was over 100 µM and the IC (TGI) amounted to 20 µM. In experiment [2], the “HDAC inhibition % (1 μM)” value is given as 28.7% and the “HDAC inhibition % (10 μM)” value was found to be 36.7%.
Take `Nc1ccccc1NC(=O)c1ccc(CNC(=O)/C(=C/c2ccc(F)cc2Cl)c2ccccc2)cc1` [Compound 9, N-(2-Aminophenyl)-4-((3-(2-chloro-4-fluorophenyl)-2-(phenyl)acrylamido)methyl)benzamide]: in the experiment on U251 (glioma) cells, the concentration for 50% growth inhibition (GI50) worked out at 60 µM, the LC50 (concentration giving 50% net cell kill relative to the time-zero cell count) is over 100 µM and the IC (TGI) came out at 79 µM. Besides, in the experiment with NCIH460 (lung) cells, the GI50 worked out at 90 µM, the LC50 is over 100 µM and the IC (TGI) is over 100 µM. Also, the 50% growth inhibitory concentration (GI50) in experiment [1] came out at 69.3 µM. Also, in the experiment on HCT 116 (colon) cells, the GI50 is 58 µM, the CC50 is over 100 µM and the IC (TGI) worked out at 94 µM. In experiment [2], the “HDAC inhibition % (1 μM)” value was determined as 12.1% and the “HDAC inhibition % (10 μM)” value stood at 32.1%.
